According to publication PMC11836371, “Virtual fragment screening for DNA repair inhibitors in vast chemical space” (Nature Communications, 2025):
Values joined by “and” are separate entries in the source; they are usually repeats but may differ in a detail not shown here. Equal entries are not always repeated. Where two headings read alike, the source gives them in different places.

Experiments:
[1] = molecular target: T1, human OGG1 enzyme (Homo sapiens, UniProt O15527); assay: OGG1 glycosylase activity assay (enzyme inhibition, APE1-coupled fluorescence); format: biochemical
Description: “8” signifies 8-oxoA and “FAM” and “Dab” signify fluorescein and dabcyl (TriLink Biotech). Briefly, compounds dissolved in DMSO were dispensed using an Echo 550 (Labcyte), followed by transfer of enzyme and substrate solutions manually with a 16-channel pipette or with a Multidrop (Thermo Scientific). The plates were centrifuged, sealed and incubated at room temperature overnight (15 h) and read the following morning in an Hidex Sense plate reader (Hidex Oy) using a 485-nm filter with a bandwidth of 10 nm for excitation and a 535-nm filter with a bandwidth of 20 nm for emission.

[2] = molecular target: T1, human OGG1 enzyme; assay: Differential scanning fluorimetry (DSF) thermal shift assay; format: binding; design: ∆Tm (K): unit of the concentration uncertain
Description: The temperature was increased from 20 °C to 85 °C with 10 readings/degree. Tm values were calculated using an excel template and fitting to the Boltzmann equation in Prism v.6.07 (GraphPad Software).

[3] = test system: NF-κB activation in HEK293T pGF NF-κB cells; assay: TNF-α induced NF-κB activation assay; format: cell-based; details: Homo sapiens, HEK-293T; NFκB activation assay; ± SD; read-out: pEC50 (converted)
Description: The inhibition of TNF-α induced NF-κB activation was measured in HEK293T cells transfected with the pGreenfire NF-κB plasmid. This is a plasmid that has NF-κB response elements (TRE) coupled to GFP and luciferase expression. When the NF-κB is activated by TNF-α, it binds to the TRE and induces GFP expression, and the fluorescence can be measured in a plate reader. The cells were authenticated with STR profiling, frozen down and these stocks were used in experiments. The HEK293T pGF NF-κB cells were kept in DMEM with 5% FBS and 1% P/S but, when seeded for the assay the medium was changed to DMEM FluoroBrite with 1% dialyzed FBS. All cell culture reagents were purchased from Thermo Fisher Scientific. Compounds were nano-dispensed (Echo acoustic dispenser) in 96-well, black/clear, assay plates (Corning #3904), duplicate plates, in 8-points dose-response curves, 1:2 dilutions, with DMSO compensation (0.3% DMSO). Cells were seeded at 30000 cells/well in medium containing 10 ng/mL of TNF-α (Sigma-Aldrich), except negative control wells which only contained cells in medium. Cells were cultured for 24 hours in a humidified incubator at 37 °C with 5% CO2 after which the GFP fluorescence was measured in a Sense plate reader (Hidex) with ex485/em535. The RFU data from the duplicate plates were combined to calculate % inhibition of NF-κB activation and IC50-values were calculated using XLfit (IDBS). In parallel with the NF-κB assay, a CellTiterGlo (Promega) cell viability assay was run to exclude compounds affecting cell viability. Compounds were nano-dispensed (Echo acoustic dispenser) in assay plates in 11-points dose-response curves, 1:3 dilutions, without DMSO compensation, with duplicates on the same plate. Cells were seeded at 7500 cells/well in 25 µL medium (DMEM FluoroBrite with 1% dialyzed FBS) containing 10 ng/mL TNF-α and cultured for 24 hours, with column 24 containing only culture medium. After equilibration to room temperature, the CellTiterGlo reagents were mixed and 25 µL/well were added to the cell plate. After 2 min mixing of the plate on an orbital shaker, the plate was incubated for 10 min at room temperature followed by luminescence reading in Sense. The cell viability was calculated compared to untreated control wells and the EC50 values were determined in XLfit (IDBS). […]

[4] = test system: A2780 cells; assay: Cancer cell viability assay (resazurin), A2780; format: cell-based; details: two independent experiments; for percentage cell viability: A2780, 100 μM, 100 µM; for viability at 100 µM: Homo sapiens, A2780, A2780, 100 μM, read-out: percentage cell viability
Description: (§1) Three different cancer cell lines A2780 (ovarian cancer, ECACC 93112519), A549 (lung cancer, ATCC 60150896) and HCT116 (colon cancer, ATCC CCL-247), and one immortalized fibroblast cell line (BJhTERT) as control, were seeded in black/clear 384-well plates (Corning #3764), 50 µL/well, containing 11 concentrations, nano-dispensed, dose-response curves of the test compounds. A2780, HCT116, and HEK293T cell lines were authenticated with STR profiling, frozen down, and these stocks were used in experiments. The A2780 cells were cultured in RPMI 1640, the A549 and BJhTERT cells in DMEM, and the HCT116 cells in McCoys 5 A medium. All media were supplemented with 10% FBS and 1% P/S. All cell culture media, additives, and reagents were purchased from Thermo Fisher Scientific. The cell plates were incubated 72 hours in a humidified incubator at 37 °C with 5% CO2, after which resazurin (Sigma-Aldrich), 10 µL/well, was added to a final concentration of 10 µg/mL. The plates were incubated for 6 hours with resazurin followed by fluorescence readings in a Sense plate reader (Hidex), resorufin protocol (ex 544 nm/em 595 nm). The cell viability was calculated compared to untreated control wells and the EC50 values were determined in XLfit (IDBS).

[5] = test system: A549 cells; assay: Cancer cell viability assay (resazurin), A549; format: cell-based; details: two independent experiments; for percentage cell viability: A549, 100 μM, 100 µM; for viability at 100 µM: Homo sapiens, A549, A549, 100 μM, read-out: percentage cell viability
Description: as §1

[6] = test system: HCT116 cells; assay: Cancer cell viability assay (resazurin), HCT116; format: cell-based; details: two independent experiments; for percentage cell viability: HCT116, 100 μM, 100 µM; for viability at 100 µM: Homo sapiens, HCT-116, HCT116, 100 μM, read-out: percentage cell viability
Description: as §1

[7] = Cell viability assay (resazurin), BJhTERT non-transformed control; format: cell-based; details: human, BJhTERT, 100 μM, two independent experiments; read-out: percentage cell viability
Description: (§2) A2780, HCT116, and HEK293T cell lines were authenticated with STR profiling, frozen down, and these stocks were used in experiments. […] All media were supplemented with 10% FBS and 1% P/S. All cell culture media, additives, and reagents were purchased from Thermo Fisher Scientific. The cell plates were incubated 72 hours in a humidified incubator at 37 °C with 5% CO2, after which resazurin (Sigma-Aldrich), 10 µL/well, was added to a final concentration of 10 µg/mL. […] The cell viability was calculated compared to untreated control wells and the EC50 values were determined in XLfit (IDBS).

[8] = test system: BJhTERT cells; assay: as above; format: cell-based; details: BJhTERT, 100 μM, two independent experiments
Description: as §2

[9] = 99 (unit uncertain) as printed in sheet footnote
[10] = Table S5, ± SD, read-out: pIC50 (converted)

T1 sequence (O15527 whole entry): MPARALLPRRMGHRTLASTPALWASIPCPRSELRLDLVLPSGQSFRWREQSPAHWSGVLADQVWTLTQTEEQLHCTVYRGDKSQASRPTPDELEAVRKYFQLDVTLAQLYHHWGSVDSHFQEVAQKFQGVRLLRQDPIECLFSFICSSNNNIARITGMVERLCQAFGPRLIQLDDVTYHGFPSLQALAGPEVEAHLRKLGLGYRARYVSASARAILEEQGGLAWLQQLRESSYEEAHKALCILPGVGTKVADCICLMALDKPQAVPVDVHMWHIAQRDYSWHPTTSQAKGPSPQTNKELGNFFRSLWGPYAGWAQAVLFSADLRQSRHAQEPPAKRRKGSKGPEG

Compound	∆Tm (K) ([2]; 99 μM)	EC50 [3] [µM]	percentage cell viability [4] [%]	viability at 100 µM [4] [%]	percentage cell viability [5] [%]	viability at 100 µM [5] [%]	percentage cell viability [6] [%]	viability at 100 µM [6] [%]	viability at 72 h, 100 µM [7] [%]	percentage cell viability [8] [%]	IC50 [1, 10] [µM]	other results
Cc1cc(C)n(-c2cc(F)c(CC(=O)Nc3noc4c3CCCC4)c(F)c2)n1 [compound 8]	5.4 ± 0.5 K	11.2	19.16	17.4	33.07	32.8	43.25	35.4	40.1	42.84		IC50 ([1]; Table 1, mean ± SD, at least three independent replicates, read-out: pIC50 (converted)): 6.46 µM; ∆Tm (K) [2, 9]: 5.4 ± 0.5 K
O=C(Cc1ccc(-n2ncc3ccncc32)cc1)Nc1noc2c1CCCC2 [compound 13]		14.1									47.9	
Cc1[nH]c(Br)nc1-c1ccc(CC(=O)Nc2noc3c2CCCC3)cc1 [compound 21]	5.9 K	11.5	6.18	4.62	31.92	23.9	47.52	38.9	63.3	76	2.09	
Cc1cc(C)n(-c2ccc(CC(=O)Nc3noc4c3CCCC4)cc2)n1 [compound 7]	5.5 K and 5.5 ± 1.2 K	35.5										OGG1 inhibition, dose-response (Figure2C) ([1]; Concentration (M) 9.67e-7): 16.25 and 10.96; OGG1 inhibition, dose-response (Figure2C) ([1]; Concentration (M) 1.93e-6): 24.11 and 22.26; OGG1 inhibition, dose-response (Figure2C) ([1]; Concentration (M) 3.87e-6): 37.42 and 38.76; OGG1 inhibition, dose-response (Figure2C) ([1]; Concentration (M) 7.73e-6): 52.82 and 50.97; OGG1 inhibition, dose-response (Figure2C) ([1]; Concentration (M) 1.55e-5): 74.43 and 67.46; OGG1 inhibition, dose-response (Figure2C) ([1]; Concentration (M) 3.09e-5): 80.92 and 75.35; OGG1 inhibition, dose-response (Figure2C) ([1]; Concentration (M) 6.19e-5): 85.03 and 86.63; OGG1 inhibition, dose-response (Figure2C) ([1]; Concentration (M) 0.000124): 92.57 and 92.28; OGG1 inhibition, dose-response (Figure2C) ([1]; Concentration (M) 0.000248): 92.32 and 95.26; OGG1 inhibition, dose-response (Figure2C) ([1]; Concentration (M) 0.000495): 96.86 and 92.16; IC50 ([1]; read-out: IC50): 6.6 µM; ∆Tm (K) [2, 9]: 5.5 ± 1.2 K; ΔTm ([2]; concentration not given): 5.5 K
Cc1cc(C2CC2)n(-c2ccc(CC(=O)Nc3noc4c3CCCC4)cc2)n1 [compound 9]	6.6 ± 0.6 K	9.12	25.03	21.5	68.3	68.1	86.44	81.6	73	80.1	3.72	IC50 ([1]; Figure 3B source data, three independent experiments, read-out: IC50 OGG1): 6.28 µM and 6.2 µM and 6.46 µM
Cc1nc(-c2ccc(CC(=O)Nc3noc4c3CCCC4)c(C)c2)c(C)[nH]1 [compound 19]	7.4 ± 0.2 K	10.5	2.96	2.43			6.65	5.31	15.2	24.77	0.813	
O=C(Cc1ccc(-n2ncc3c2CCNC3)cc1)Nc1noc2c1CCCC2 [compound 16]		> 31.6									> 100	
